ChEMBL document CHEMBL1129017, “Chemical feasibility studies of a potential coumarin-based prodrug system” (Bioorg Med Chem Lett, 1996)

Assay: Compound was evaluated for its half life period.
Assay type: ADME

| half-life | SMILES |
| --- | --- |
| 1.63 min | COc1ccc(NC(=O)/C=C\c2ccccc2OC(C)=O)cc1 |
| 16.3 min | CC(=O)Oc1ccccc1/C=C\C(=O)NCc1ccccc1 |
| 31.2 min | CC(=O)Oc1ccccc1/C=C\C(=O)N(C)Cc1ccccc1 |
